Reference: ChEMBL document CHEMBL3875154 (Eur J Med Chem, 2016)

How the values were obtained:
[1] = target: T1, cGMP-specific 3',5'-cyclic phosphodiesterase (Homo sapiens, UniProt O76074); assay: Inhibition of human PDE5A at 10^4 nM using FAM-3',5'-cAMP as substrate after 1 hr by fluorescence polarization assay relative to control
[2] = target: T2, High affinity cGMP-specific 3',5'-cyclic phosphodiesterase 9A (Homo sapiens, UniProt O76083); assay: Inhibition of human PDE9A2 using FAM-3',5'-cAMP as substrate after 1 hr by fluorescence polarization assay
[3] = species on record: Homo sapiens; assay: Potency index, ratio of rolipram IC50 to test compound IC50 for human PDE4 catalytic domain
[4] = target: T3, 3',5'-cyclic-AMP phosphodiesterase 4D (Homo sapiens, UniProt Q08499); assay: Inhibition of full length human PDE4D7 at 10^4 nM using FAM-3',5'-cAMP as substrate after 1 hr by fluorescence polarization assay relative to control
[5] = target: T4, 3',5'-cyclic-AMP phosphodiesterase 4C (Homo sapiens, UniProt Q08493); assay: Inhibition of full length human PDE4C1 using FAM-3',5'-cAMP as substrate after 1 hr by fluorescence polarization assay
[6] = target: T5, Dual 3',5'-cyclic-AMP and -GMP phosphodiesterase 11A (Homo sapiens, UniProt Q9HCR9); assay: Inhibition of human PDE11A using FAM-3',5'-cAMP as substrate after 1 hr by fluorescence polarization assay
Target sequence in this assay (Q9HCR9 whole entry): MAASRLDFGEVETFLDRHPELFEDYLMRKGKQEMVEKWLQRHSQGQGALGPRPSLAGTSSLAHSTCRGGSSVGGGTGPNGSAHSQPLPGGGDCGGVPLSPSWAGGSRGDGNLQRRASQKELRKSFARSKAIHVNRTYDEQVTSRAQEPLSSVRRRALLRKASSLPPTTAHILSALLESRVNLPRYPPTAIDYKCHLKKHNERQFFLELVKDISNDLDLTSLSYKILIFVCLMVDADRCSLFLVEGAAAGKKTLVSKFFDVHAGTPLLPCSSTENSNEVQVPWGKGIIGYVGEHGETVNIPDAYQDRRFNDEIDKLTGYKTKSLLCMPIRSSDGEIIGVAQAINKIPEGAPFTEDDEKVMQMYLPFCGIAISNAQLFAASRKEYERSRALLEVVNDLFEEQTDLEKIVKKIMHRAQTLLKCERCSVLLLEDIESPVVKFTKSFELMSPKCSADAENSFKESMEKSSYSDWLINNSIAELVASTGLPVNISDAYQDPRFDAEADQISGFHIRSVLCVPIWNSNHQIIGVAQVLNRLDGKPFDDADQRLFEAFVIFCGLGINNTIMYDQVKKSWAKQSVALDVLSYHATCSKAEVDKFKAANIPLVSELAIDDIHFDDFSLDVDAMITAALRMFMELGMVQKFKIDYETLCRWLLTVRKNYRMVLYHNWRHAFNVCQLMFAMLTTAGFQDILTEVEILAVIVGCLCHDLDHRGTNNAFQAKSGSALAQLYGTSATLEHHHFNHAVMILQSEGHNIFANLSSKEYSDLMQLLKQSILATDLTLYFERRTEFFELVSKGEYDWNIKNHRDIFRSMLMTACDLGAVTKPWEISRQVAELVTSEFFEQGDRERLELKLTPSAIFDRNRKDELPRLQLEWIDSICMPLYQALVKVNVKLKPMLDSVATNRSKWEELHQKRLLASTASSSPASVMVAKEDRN

[7] = target: T5, Dual 3',5'-cyclic-AMP and -GMP phosphodiesterase 11A; assay: Inhibition of human PDE11A at 10^4 nM using FAM-3',5'-cAMP as substrate after 1 hr by fluorescence polarization assay relative to control
Target sequence in this assay (Q9HCR9 whole entry, looked up): as the sequence (Q9HCR9 whole entry) above

[8] = target: T6, High affinity cAMP-specific and IBMX-insensitive 3',5'-cyclic phosphodiesterase 8A (Homo sapiens, UniProt O60658); assay: Inhibition of human PDE8A1 at 10^4 nM using FAM-3',5'-cAMP as substrate after 1 hr by fluorescence polarization assay relative to control
[9] = target: T7, cGMP-dependent 3',5'-cyclic phosphodiesterase (Homo sapiens, UniProt O00408); assay: Inhibition of human PDE2A using FAM-3',5'-cAMP as substrate after 1 hr by fluorescence polarization assay
[10] = target: T8, 3',5'-cyclic-AMP phosphodiesterase 4A (Homo sapiens, UniProt P27815); assay: Inhibition of full length human PDE4A4 at 10^4 nM using FAM-3',5'-cAMP as substrate after 1 hr by fluorescence polarization assay relative to control
[11] = target: T9, cAMP and cAMP-inhibited cGMP 3',5'-cyclic phosphodiesterase 10A (Homo sapiens, UniProt Q9Y233); assay: Inhibition of human PDE10A2 at 10^4 nM using FAM-3',5'-cAMP as substrate after 1 hr by fluorescence polarization assay relative to control
[12] = target: T10, Dual specificity calcium/calmodulin-dependent 3',5'-cyclic nucleotide phosphodiesterase 1A (Homo sapiens, UniProt P54750); assay: Inhibition of human PDE1A at 10^4 nM using FAM-3',5'-cAMP as substrate after 1 hr by fluorescence polarization assay relative to control
[13] = test system: BV-2; assay: Antineuroinflammatory activity in mouse BV2 cells assessed as inhibition of LPS-induced TNFalpha production; assay type: functional, cell-based
[14] = target: T11, 3',5'-cyclic-AMP phosphodiesterase 4B (Homo sapiens, UniProt Q07343); assay: Inhibition of full length human PDE4B1 at 10^4 nM using FAM-3',5'-cAMP as substrate after 1 hr by fluorescence polarization assay relative to control
[15] = target: T12, High affinity 3',5'-cyclic-AMP phosphodiesterase 7A (Homo sapiens, UniProt Q13946); assay: Inhibition of human PDE7A at 10^4 nM using FAM-3',5'-cAMP as substrate after 1 hr by fluorescence polarization assay relative to control
[16] = Inhibition of human PDE4 catalytic domain using FAM-3',5'-cAMP as substrate after 1 hr by fluorescence polarization assay
[17] = target: T7, cGMP-dependent 3',5'-cyclic phosphodiesterase; assay: Inhibition of human PDE2A at 10^4 nM using FAM-3',5'-cAMP as substrate after 1 hr by fluorescence polarization assay relative to control
[18] = target: T12, High affinity 3',5'-cyclic-AMP phosphodiesterase 7A; assay: Inhibition of human PDE7A using FAM-3',5'-cAMP as substrate after 1 hr by fluorescence polarization assay
[19] = target: T2, High affinity cGMP-specific 3',5'-cyclic phosphodiesterase 9A; assay: Inhibition of human PDE9A2 at 10^4 nM using FAM-3',5'-cAMP as substrate after 1 hr by fluorescence polarization assay relative to control
[20] = target: T1, cGMP-specific 3',5'-cyclic phosphodiesterase; assay: Inhibition of human PDE5A using FAM-3',5'-cAMP as substrate after 1 hr by fluorescence polarization assay
[21] = target: T9, cAMP and cAMP-inhibited cGMP 3',5'-cyclic phosphodiesterase 10A; assay: Inhibition of human PDE10A2 using FAM-3',5'-cAMP as substrate after 1 hr by fluorescence polarization assay
[22] = target: T6, High affinity cAMP-specific and IBMX-insensitive 3',5'-cyclic phosphodiesterase 8A; assay: Inhibition of human PDE8A1 using FAM-3',5'-cAMP as substrate after 1 hr by fluorescence polarization assay
[23] = target: T8, 3',5'-cyclic-AMP phosphodiesterase 4A; assay: Inhibition of full length human PDE4A4 using FAM-3',5'-cAMP as substrate after 1 hr by fluorescence polarization assay
[24] = target: T11, 3',5'-cyclic-AMP phosphodiesterase 4B; assay: Inhibition of full length human PDE4B1 using FAM-3',5'-cAMP as substrate after 1 hr by fluorescence polarization assay
[25] = target: T10, Dual specificity calcium/calmodulin-dependent 3',5'-cyclic nucleotide phosphodiesterase 1A; assay: Inhibition of human PDE1A using FAM-3',5'-cAMP as substrate after 1 hr by fluorescence polarization assay
[26] = target: T3, 3',5'-cyclic-AMP phosphodiesterase 4D; assay: Inhibition of full length human PDE4D7 using FAM-3',5'-cAMP as substrate after 1 hr by fluorescence polarization assay
[27] = target: T13, cGMP-inhibited 3',5'-cyclic phosphodiesterase 3B (Homo sapiens, UniProt Q13370); assay: Inhibition of human PDE3B using FAM-3',5'-cAMP as substrate after 1 hr by fluorescence polarization assay
Target sequence in this assay (Q13370 whole entry): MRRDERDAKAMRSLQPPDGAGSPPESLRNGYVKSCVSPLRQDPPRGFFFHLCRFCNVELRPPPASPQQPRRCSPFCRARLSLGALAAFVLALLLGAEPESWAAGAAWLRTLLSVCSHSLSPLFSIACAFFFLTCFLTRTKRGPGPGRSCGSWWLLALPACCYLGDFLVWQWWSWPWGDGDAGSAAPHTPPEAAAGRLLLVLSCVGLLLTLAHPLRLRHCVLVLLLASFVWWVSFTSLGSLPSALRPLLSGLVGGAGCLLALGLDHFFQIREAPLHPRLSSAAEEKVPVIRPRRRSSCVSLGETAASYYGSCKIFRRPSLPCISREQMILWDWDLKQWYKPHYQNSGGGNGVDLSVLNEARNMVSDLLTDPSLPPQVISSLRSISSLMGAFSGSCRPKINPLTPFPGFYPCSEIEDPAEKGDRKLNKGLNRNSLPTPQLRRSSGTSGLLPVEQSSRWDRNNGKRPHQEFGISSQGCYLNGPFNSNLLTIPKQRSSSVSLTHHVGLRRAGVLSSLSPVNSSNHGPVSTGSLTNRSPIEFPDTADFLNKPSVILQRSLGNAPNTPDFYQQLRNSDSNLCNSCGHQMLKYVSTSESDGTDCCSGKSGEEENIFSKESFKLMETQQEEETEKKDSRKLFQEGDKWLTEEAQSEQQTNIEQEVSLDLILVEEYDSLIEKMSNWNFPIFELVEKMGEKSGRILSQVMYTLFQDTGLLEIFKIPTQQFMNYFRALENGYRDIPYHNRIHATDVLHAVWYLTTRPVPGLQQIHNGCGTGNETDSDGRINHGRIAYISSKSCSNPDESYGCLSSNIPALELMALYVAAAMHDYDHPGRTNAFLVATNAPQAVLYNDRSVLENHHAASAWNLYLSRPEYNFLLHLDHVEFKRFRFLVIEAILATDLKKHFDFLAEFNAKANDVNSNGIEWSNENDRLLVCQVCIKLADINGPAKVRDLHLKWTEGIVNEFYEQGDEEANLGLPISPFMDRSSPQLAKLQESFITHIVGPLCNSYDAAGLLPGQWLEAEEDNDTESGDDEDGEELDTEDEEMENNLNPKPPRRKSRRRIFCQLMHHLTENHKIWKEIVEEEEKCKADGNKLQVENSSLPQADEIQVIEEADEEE

[28] = target: T13, cGMP-inhibited 3',5'-cyclic phosphodiesterase 3B; assay: Inhibition of human PDE3B at 10^4 nM using FAM-3',5'-cAMP as substrate after 1 hr by fluorescence polarization assay relative to control
Target sequence in this assay (Q13370 whole entry, looked up): as the sequence (Q13370 whole entry) above

[29] = target: T14, Cone cGMP-specific 3',5'-cyclic phosphodiesterase subunit alpha' (Homo sapiens, UniProt P51160); assay: Inhibition of human PDE6C using FAM-3',5'-cAMP as substrate after 1 hr by fluorescence polarization assay
[30] = target: T4, 3',5'-cyclic-AMP phosphodiesterase 4C; assay: Inhibition of full length human PDE4C1 at 10^4 nM using FAM-3',5'-cAMP as substrate after 1 hr by fluorescence polarization assay relative to control
[31] = target: T14, Cone cGMP-specific 3',5'-cyclic phosphodiesterase subunit alpha'; assay: Inhibition of human PDE6C at 10^4 nM using FAM-3',5'-cAMP as substrate after 1 hr by fluorescence polarization assay relative to control

T7 sequence (O00408 whole entry): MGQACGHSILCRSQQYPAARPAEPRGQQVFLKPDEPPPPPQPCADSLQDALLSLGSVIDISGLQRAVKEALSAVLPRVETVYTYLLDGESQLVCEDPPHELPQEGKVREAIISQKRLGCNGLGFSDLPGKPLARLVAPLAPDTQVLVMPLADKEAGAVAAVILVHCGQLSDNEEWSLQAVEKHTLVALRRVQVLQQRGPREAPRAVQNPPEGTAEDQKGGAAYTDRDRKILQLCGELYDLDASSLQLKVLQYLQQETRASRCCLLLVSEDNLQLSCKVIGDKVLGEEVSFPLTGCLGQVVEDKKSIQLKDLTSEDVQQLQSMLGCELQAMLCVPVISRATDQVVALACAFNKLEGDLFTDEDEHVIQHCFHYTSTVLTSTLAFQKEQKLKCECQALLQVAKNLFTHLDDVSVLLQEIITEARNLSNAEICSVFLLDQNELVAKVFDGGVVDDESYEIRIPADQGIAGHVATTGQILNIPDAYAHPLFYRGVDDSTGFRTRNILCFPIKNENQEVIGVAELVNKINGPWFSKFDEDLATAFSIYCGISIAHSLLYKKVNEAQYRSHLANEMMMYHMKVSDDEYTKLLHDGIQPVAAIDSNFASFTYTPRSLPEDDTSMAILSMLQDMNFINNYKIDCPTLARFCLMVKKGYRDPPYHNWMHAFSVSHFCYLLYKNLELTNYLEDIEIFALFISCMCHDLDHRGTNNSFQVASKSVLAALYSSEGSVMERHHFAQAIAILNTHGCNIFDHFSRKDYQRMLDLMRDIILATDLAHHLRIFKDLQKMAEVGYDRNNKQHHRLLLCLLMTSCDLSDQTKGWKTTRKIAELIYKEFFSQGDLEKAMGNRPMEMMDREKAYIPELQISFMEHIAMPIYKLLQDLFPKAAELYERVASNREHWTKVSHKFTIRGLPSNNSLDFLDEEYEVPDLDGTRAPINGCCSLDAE
T4 sequence (Q08493 whole entry): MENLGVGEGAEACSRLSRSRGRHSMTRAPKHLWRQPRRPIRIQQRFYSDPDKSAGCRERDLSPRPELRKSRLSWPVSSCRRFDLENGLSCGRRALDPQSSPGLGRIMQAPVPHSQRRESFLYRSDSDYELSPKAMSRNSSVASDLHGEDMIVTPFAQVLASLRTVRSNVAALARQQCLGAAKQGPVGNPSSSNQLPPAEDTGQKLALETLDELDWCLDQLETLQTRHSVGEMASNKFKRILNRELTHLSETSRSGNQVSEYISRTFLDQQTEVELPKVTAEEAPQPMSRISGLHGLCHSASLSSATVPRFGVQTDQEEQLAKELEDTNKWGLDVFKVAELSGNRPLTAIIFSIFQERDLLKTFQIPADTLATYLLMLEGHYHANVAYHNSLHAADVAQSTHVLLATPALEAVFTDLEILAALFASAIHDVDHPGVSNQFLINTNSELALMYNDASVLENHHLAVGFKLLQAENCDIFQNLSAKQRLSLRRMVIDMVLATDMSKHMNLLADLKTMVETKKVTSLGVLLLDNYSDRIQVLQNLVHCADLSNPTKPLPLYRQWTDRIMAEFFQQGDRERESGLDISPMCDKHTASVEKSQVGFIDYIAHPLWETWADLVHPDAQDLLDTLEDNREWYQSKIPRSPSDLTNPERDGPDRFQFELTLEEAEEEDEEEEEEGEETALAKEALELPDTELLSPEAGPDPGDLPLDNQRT
T9 sequence (Q9Y233 whole entry): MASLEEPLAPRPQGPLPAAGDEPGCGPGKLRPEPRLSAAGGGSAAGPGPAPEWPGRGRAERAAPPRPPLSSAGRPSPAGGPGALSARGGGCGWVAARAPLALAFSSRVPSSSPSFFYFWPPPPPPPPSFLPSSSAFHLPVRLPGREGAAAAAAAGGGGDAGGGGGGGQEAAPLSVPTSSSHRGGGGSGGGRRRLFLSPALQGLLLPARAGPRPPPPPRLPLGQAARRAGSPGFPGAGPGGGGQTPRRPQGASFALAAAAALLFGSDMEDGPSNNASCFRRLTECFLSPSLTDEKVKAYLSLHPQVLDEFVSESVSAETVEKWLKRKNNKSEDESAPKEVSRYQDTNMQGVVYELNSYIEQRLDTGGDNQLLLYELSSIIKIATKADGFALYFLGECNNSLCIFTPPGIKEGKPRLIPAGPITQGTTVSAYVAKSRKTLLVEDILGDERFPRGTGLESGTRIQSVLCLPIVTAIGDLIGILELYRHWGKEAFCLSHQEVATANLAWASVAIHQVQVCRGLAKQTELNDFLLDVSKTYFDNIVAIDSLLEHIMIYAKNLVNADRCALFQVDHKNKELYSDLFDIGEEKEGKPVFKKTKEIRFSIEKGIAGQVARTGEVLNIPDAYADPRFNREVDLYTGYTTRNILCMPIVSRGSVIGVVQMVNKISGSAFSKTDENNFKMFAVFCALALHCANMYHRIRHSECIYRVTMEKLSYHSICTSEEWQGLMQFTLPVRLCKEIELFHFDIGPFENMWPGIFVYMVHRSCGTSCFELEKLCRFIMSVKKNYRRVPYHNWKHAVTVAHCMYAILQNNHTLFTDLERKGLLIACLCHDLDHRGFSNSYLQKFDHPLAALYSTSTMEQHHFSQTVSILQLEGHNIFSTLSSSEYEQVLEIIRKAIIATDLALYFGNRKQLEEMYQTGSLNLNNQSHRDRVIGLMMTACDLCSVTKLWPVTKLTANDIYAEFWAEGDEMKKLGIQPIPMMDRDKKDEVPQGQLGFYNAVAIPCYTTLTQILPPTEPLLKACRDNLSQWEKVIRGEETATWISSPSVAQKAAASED

Row | Compound | inhibition [1] [%] | IC50 [2] [nM] | Ratio IC50 [3] | inhibition [4] [%] | IC50 [5] [nM] | inhibition [7] [%] | inhibition [8] [%] | IC50 [9] [nM] | inhibition [10] [%] | inhibition [11] [%] | inhibition [12] [%] | inhibition [14] [%] | inhibition [15] [%] | IC50 [16] [nM] | inhibition [17] [%] | IC50 [18] [nM] | inhibition [19] [%] | IC50 [20] [nM] | IC50 [21] [nM] | IC50 [22] [nM] | other results
1 | O=C(Nc1ccccc1Cl)c1ccc(OC(F)F)c(OCC2CC2)c1 | 12 | > 100000 | < 18 | 99 | 501 | 5 | 3 | > 100000 | 100 | 3 | 6 | 98 | 7 | 90 | 8 | > 100000 | 3 | > 100000 | > 100000 | > 100000 | IC50 [6]: > 100000 nM; inhibition [13]: Dose-dependent effect; IC50 [23]: 126 nM; IC50 [24]: 166 nM; IC50 [25]: > 100000 nM; IC50 [26]: 39 nM; IC50 [27]: > 100000 nM; inhibition [28]: 13%; IC50 [29]: > 100000 nM; inhibition [30]: 96%; inhibition [31]: 2%
2 | CN(C(=O)c1ccc(OC(F)F)c(OC2CCCC2)c1)c1ccccn1 |  |  |  |  |  |  |  |  |  |  |  |  |  | 1400 |  |  |  |  |  |  | 
3 | COc1ccc(C2CNC(=O)C2)cc1OC1CCCC1 (configuration not stated) [ROLIPRAM] |  |  |  |  |  |  |  |  |  |  |  |  |  | 550 |  |  |  |  |  |  | 
4 | O=C(Nc1ccccc1)c1ccc(OC(F)F)c(OCC2CC2)c1 |  |  | < 18 |  |  |  |  |  |  |  |  |  |  | 220 |  |  |  |  |  |  | 
5 | COc1ccc(C(=O)N(C)c2ccccn2)cc1OC1CCCC1 |  |  |  |  |  |  |  |  |  |  |  |  |  | 9700 |  |  |  |  |  |  | 
6 | O=C(Nc1cccnc1)c1ccc(OC(F)F)c(OC2CCCC2)c1 | 12 | > 100000 | < 18 | 99 | 294 | 76 | 9 | > 100000 | 98 | 9 | 0 | 99 | 3 | 140 | 26 | > 100000 | 4 | > 100000 | > 100000 | > 100000 | IC50 [23]: 117 nM; IC50 [24]: 39 nM; IC50 [25]: > 100000 nM; IC50 [26]: 68 nM; IC50 [27]: > 100000 nM; inhibition [28]: 6%; IC50 [29]: > 100000 nM; inhibition [30]: 98%; inhibition [31]: 16%
7 | CN(C(=O)c1ccc(OC(F)F)c(OCC2CC2)c1)c1ccccn1 |  |  |  |  |  |  |  |  |  |  |  |  |  | 2500 |  |  |  |  |  |  | 
8 | COc1ccc(C(=O)N(C)c2ccccn2)cc1OCC1CC1 |  |  |  |  |  |  |  |  |  |  |  |  |  | 25100 |  |  |  |  |  |  | 
9 | COc1ccc(C(=O)Nc2cccnc2)cc1OCC1CC1 |  |  | < 18 |  |  |  |  |  |  |  |  |  |  | 360 |  |  |  |  |  |  | 
10 | O=C(Nc1ccccc1)c1ccc(OC(F)F)c(OC2CCCC2)c1 |  |  | < 18 |  |  |  |  |  |  |  |  |  |  | 240 |  |  |  |  |  |  | 
11 | O=C(Nc1ccccc1Cl)c1ccc(OC(F)F)c(OC2CCCC2)c1 | 7 | > 100000 | < 18 | 99 | 400 | 7 | 10 | > 100000 | 98 | 6 | 3 | 100 | 3 | 30 | 28 | > 100000 | 6 | > 100000 | > 100000 | > 100000 | IC50 [6]: > 100000 nM; IC50 [23]: 95 nM; IC50 [24]: 144 nM; IC50 [25]: > 100000 nM; IC50 [26]: 22 nM; IC50 [27]: > 100000 nM; inhibition [28]: 6%; IC50 [29]: > 100000 nM; inhibition [30]: 97%; inhibition [31]: 2%
12 | COc1ccc(C(=O)Nc2cccnc2)cc1OC1CCCC1 |  |  | < 18 |  |  |  |  |  |  |  |  |  |  | 310 |  |  |  |  |  |  | 
13 | O=C(Nc1cccnc1)c1ccc(OC(F)F)c(OCC2CC2)c1 | 23 | > 100000 | < 18 | 100 | 269 | 85 | 22 | > 100000 | 98 | 14 | 20 | 99 | 7 | 69 | 23 | > 100000 | 8 | > 100000 | > 100000 | > 100000 | IC50 [23]: 76 nM; IC50 [24]: 34 nM; IC50 [25]: > 100000 nM; IC50 [26]: 71 nM; IC50 [27]: > 100000 nM; inhibition [28]: 6%; IC50 [29]: > 100000 nM; inhibition [30]: 98%; inhibition [31]: 28%
